The values below come from ChEMBL document CHEMBL1649066, “An imidazopiperidine series of CCR5 antagonists for the treatment of HIV: the discovery of N-{(1S)-1-(3-fluorophenyl)-3-[(3-endo)-3-(5-isobutyryl-2-methyl-4,5,6,7-tetrahydro-1H-imidazo[4,5-c]pyridin-1-yl)-8-azabicyclo[3.2.1]oct-8-yl]propyl}acetamide (PF-232798)” (J Med Chem, 2011).

The source made the active and inactive calls. No cut-off for these calls is given here. Some results are limits rather than exact numbers.

As a reminder, the Papp B→A is how fast a substance crosses the layer from the basolateral side. In general, microsomal CLint refers to the capacity of the preparation to metabolise the compound, expressed as a volume cleared per time. Lower therefore signals greater metabolic stability. As a reminder, the IC50 is the concentration at which inhibition is half-maximal. The low end stands for higher potency, the high end for lower potency. As usually defined, the Papp A→B is how fast a substance crosses the layer from the apical side. Broadly, the logD is lipophilicity at a set pH, counting ionised and neutral species. A high value points to higher lipophilicity. For orientation: inhibition means the drop in the measured response relative to a control, in per cent. Higher therefore signals a strong effect.

Data set [1] concerns Human immunodeficiency virus 1. As to the kind of experiment: Antiviral activity against maraviroc-resistant HIV1 isolate CC185 at IC90 concentration. The class given is functional, organism-based.
In data set [2] the test system is Human immunodeficiency virus 1. As to the kind of experiment: Antiviral activity against maraviroc-resistant HIV1 isolate CC185 at 100 times IC90 concentration. The data set is classed as functional, organism-based.
The nature of data set [3]: Apparent permeability from basolateral to apical side of human Caco2 cells. The note with it: Caco-2. A general note: Passage across Caco-2 layers is used to estimate intestinal permeability.
Data set [4] is described as follows: Intrinsic clearance in human liver microsomes assessed per mg of protein. The data set is classed as ADME, Microsome.
For data set [5], the system named is Human immunodeficiency virus 1. The data set is described as follows: Antiviral activity against maraviroc-resistant HIV1 isolate CC185 at 10 times IC90 concentration. The class given is functional, organism-based.
Data set [6] addresses Voltage-gated inwardly rectifying potassium channel KCNH2 (Homo sapiens, UniProt Q12809).
Description: Displacement of [3H]-dofetilide from human ERG expressed in HEK293 cells
The nature of data set [7]: Apparent permeability from apical to basolateral side of human Caco2 cells. The conditions noted are these: Caco-2.
A short description of data set [8]: Octanol-buffer partition coefficient, log D of the compound.
Another data set addresses hERG (KCNH2) (Homo sapiens, UniProt Q12809). The data set is described as follows: in vitro. The note with it: HEK293 cells that express human ERG, probe [3H]-dofetilide.

Chain of hERG (KCNH2) (Q12809 whole entry): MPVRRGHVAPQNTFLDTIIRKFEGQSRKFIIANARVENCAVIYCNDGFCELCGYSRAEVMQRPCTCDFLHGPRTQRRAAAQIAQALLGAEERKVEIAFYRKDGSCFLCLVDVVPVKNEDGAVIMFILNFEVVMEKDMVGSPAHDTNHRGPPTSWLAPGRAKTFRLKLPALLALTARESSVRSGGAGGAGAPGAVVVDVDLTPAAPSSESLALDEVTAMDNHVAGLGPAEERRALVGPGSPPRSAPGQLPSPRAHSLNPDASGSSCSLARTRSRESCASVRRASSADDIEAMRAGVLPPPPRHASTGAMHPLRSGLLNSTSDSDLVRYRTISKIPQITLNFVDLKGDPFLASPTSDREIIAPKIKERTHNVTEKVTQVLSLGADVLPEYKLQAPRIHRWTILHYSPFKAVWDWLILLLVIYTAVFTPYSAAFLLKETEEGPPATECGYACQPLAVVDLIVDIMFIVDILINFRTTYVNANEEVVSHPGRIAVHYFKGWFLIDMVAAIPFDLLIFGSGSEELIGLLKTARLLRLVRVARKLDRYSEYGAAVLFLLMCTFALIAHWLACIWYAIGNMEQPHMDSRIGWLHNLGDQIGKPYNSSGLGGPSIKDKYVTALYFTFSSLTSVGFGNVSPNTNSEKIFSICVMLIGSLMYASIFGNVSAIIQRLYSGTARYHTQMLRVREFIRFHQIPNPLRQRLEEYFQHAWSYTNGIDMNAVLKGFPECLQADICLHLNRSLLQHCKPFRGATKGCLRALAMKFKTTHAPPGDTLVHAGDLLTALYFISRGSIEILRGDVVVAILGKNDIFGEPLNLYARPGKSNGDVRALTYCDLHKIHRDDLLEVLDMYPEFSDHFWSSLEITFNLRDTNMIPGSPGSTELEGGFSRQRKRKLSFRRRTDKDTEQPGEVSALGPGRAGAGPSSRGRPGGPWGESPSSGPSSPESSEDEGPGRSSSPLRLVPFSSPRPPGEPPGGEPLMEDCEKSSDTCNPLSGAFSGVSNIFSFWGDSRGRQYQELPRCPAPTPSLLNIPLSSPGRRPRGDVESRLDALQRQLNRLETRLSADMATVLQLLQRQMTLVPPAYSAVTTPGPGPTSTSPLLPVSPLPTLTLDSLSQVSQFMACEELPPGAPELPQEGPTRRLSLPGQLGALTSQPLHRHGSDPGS
Chain of Voltage-gated inwardly rectifying potassium channel KCNH2 (Q12809 whole entry): as above
Description for hERG (KCNH2): Displacement of [3H]-dofetilide from human ERG expressed in HEK293 cells at 300 nM

As to `CCC(=O)N1CCc2c(nc(C)n2[C@H]2C[C@H]3CC[C@@H](C2)N3CC[C@H](NC(C)=O)c2cccc(F)c2)C1`, the outcome in data set [1], in data set [2] and in data set [5] was Active. In addition, in data set [3], the Papp B→A was found to be 13 ×10⁻⁶ cm/s. In data set [4], this compound registered an intrinsic clearance (microsomal CLint) of 11 µL/min/mg. In data set [6], this compound returned an IC50 of 5000 nM. For the same compound, the apparent permeability from apical to basolateral (Papp A→B) in data set [7] amounted to 2 ×10⁻⁶ cm/s. Besides, the logD in [8] stood at 1.7.
On hERG (KCNH2), `CCC(=O)N1CCc2nc(C)n([C@H]3C[C@H]4CC[C@@H](C3)N4CC[C@H](NC(C)=O)c3ccccc3)c2C1` registered an inhibition at 0.3 µM of 13%. Also, the Papp B→A in data set [3] is 17 ×10⁻⁶ cm/s. This compound displayed an intrinsic clearance (microsomal CLint) in data set [4] below 7 µL/min/mg. Also, the Papp A→B in data set [7] was below 1 ×10⁻⁶ cm/s. In data set [8], this compound yielded a logD of 1.2.
Taken in the same sequence, the figures for `COC(=O)N1CCc2nc(C)n([C@H]3C[C@H]4CC[C@@H](C3)N4CC[C@H](NC(C)=O)c3ccccc3)c2C1` were 20%, 16 ×10⁻⁶ cm/s, 18 µL/min/mg, 3 ×10⁻⁶ cm/s and 1.5.
Turning to `CC(=O)N[C@@H](CCN1[C@@H]2CC[C@H]1C[C@@H](n1c(C)nc3c1CN(C)CC3)C2)c1ccccc1`, at hERG (KCNH2), the inhibition at 0.3 µM was 0%. Further, the basolateral-to-apical permeability (Papp B→A) in [3] was determined as 9 ×10⁻⁶ cm/s. In addition, the microsomal CLint in data set [4] is below 7 µL/min/mg. In addition, the apical-to-basolateral permeability (Papp A→B) in data set [7] was below 1 ×10⁻⁶ cm/s. Moreover, the pH-dependent lipophilicity (logD) in data set [8] came out at 0.4.
In the case of `CC(=O)N[C@@H](CCN1[C@@H]2CC[C@H]1C[C@@H](n1c(C)nc3c1CN(C(=O)OC(C)C)CC3)C2)c1ccccc1`, at 0.3 µM the inhibition on hERG (KCNH2) was 75%. Besides, the Papp B→A in data set [3] was 28 ×10⁻⁶ cm/s. The same compound gave a microsomal CLint in [4] of 44 µL/min/mg. In data set [7], the apparent permeability from apical to basolateral (Papp A→B) stood at 5 ×10⁻⁶ cm/s. Also, in data set [8], the pH-dependent lipophilicity (logD) turned out to be 2.7.
For the compound `CC(=O)N[C@@H](CCN1[C@@H]2CC[C@H]1C[C@@H](n1c(C)nc3c1CCN(c1ccncn1)C3)C2)c1cccc(F)c1`, the Papp B→A in data set [3] stood at 15 ×10⁻⁶ cm/s. The same compound showed a microsomal CLint in data set [4] of 35 µL/min/mg. Besides, half-maximal inhibition in data set [6] (IC50) was put at 10 nM. Besides, the apical-to-basolateral permeability (Papp A→B) in data set [7] came out at 4 ×10⁻⁶ cm/s. In addition, the log distribution coefficient (logD) in [8] was 2.6.
`CC(=O)N[C@@H](CCN1[C@@H]2CC[C@H]1C[C@@H](n1c(C)nc3c1CN(C(C)C)CC3)C2)c1ccccc1`: in data set [4], the microsomal CLint was 46 µL/min/mg. The compound further came in with a logD in data set [8] of 0.8.
`CC(=O)N[C@@H](CCN1[C@@H]2CC[C@H]1C[C@@H](n1c(C)nc3ccccc31)C2)c1ccccc1`: the basolateral-to-apical permeability (Papp B→A) in data set [3] stood at 35 ×10⁻⁶ cm/s. In data set [6], this compound displayed an IC50 of 1500 nM. Besides, the Papp A→B in data set [7] is 13 ×10⁻⁶ cm/s.
`Cc1nnc(C2CC2)n1[C@H]1C[C@H]2CC[C@@H](C1)N2CC[C@H](NC(=O)C1CCC(F)(F)CC1)c1ccccc1`: the outcome in data set [1], in [2] and in data set [5] was inactive.
`CC(=O)N[C@@H](CCN1[C@@H]2CC[C@H]1C[C@@H](n1c(C)nc3c1CCN(c1cnccn1)C3)C2)c1cccc(F)c1` showed an intrinsic metabolic clearance (microsomal CLint) in data set [4] of 183 µL/min/mg. The midpoint of inhibition in data set [6], the IC50, lay at 1000 nM. The log distribution coefficient (logD) in [8] is 3.
The compound `CC(=O)N[C@@H](CCN1[C@@H]2CC[C@H]1C[C@@H](n1c(C)nc3c1CN(S(C)(=O)=O)CC3)C2)c1ccccc1` showed an inhibition at 0.3 µM at hERG (KCNH2) of 10%. Also, in [4], the microsomal CLint was 24 µL/min/mg. Besides, the logD in [8] was found to be 0.9.
With `COC(=O)N[C@@H](CCN1[C@@H]2CC[C@H]1C[C@@H](n1c(C)nc3c1CN(C(C)=O)CC3)C2)c1cccc(F)c1`, at hERG (KCNH2), testing at 0.3 µM gave an inhibition of 28%. In addition, the basolateral-to-apical permeability (Papp B→A) in data set [3] came out at 23 ×10⁻⁶ cm/s. Also, the intrinsic metabolic clearance (microsomal CLint) in data set [4] was 24 µL/min/mg. In data set [7], the Papp A→B is 6 ×10⁻⁶ cm/s. Besides, the logD in [8] amounted to 1.7.
Consider `CC(=O)N1CC(C(=O)N[C@@H](CCN2[C@@H]3CC[C@H]2C[C@@H](n2c(C)nc4ccccc42)C3)c2ccccc2)C1`, for which the outcome in data set [1], in [2] and in [5] was Active.
For `Cc1nc2ccccc2n1[C@H]1C[C@H]2CC[C@@H](C1)N2CC[C@H](NC(=O)C1CCOCC1)c1ccccc1`, the result in data set [1], in [2] and in data set [5] was Active.
Consider `Cc1nc(C(C)C)n([C@H]2C[C@H]3CC[C@@H](C2)N3CC[C@H](NC(=O)C2CCC(F)(F)CC2)c2ccccc2)n1`, for which, in data set [3], the Papp B→A stood at 26 ×10⁻⁶ cm/s. Further, half-maximal inhibition in data set [6] (IC50) was put at 4230 nM. For the same compound, the apical-to-basolateral permeability (Papp A→B) in [7] was found to be 11 ×10⁻⁶ cm/s.
Consider `Cc1nnc(C(C)C)n1[C@H]1C[C@H]2CC[C@@H](C1)N2CC[C@H](NC(=O)C1CCC(F)(F)CC1)c1cccc(F)c1`, for which the result in data set [1], in [2] and in data set [5] was inactive.
Regarding `CCCC(=O)N1CCc2c(nc(C)n2[C@H]2C[C@H]3CC[C@@H](C2)N3CC[C@H](NC(C)=O)c2cccc(F)c2)C1`, the Papp B→A in data set [3] was 26 ×10⁻⁶ cm/s. Also, the intrinsic clearance (microsomal CLint) in data set [4] worked out at 25 µL/min/mg. In addition, the Papp A→B in data set [7] came to 1 ×10⁻⁶ cm/s. This compound came in with a log distribution coefficient (logD) in [8] of 2.2.
Take `COC[C@@H](c1ccc(C(F)(F)F)cc1)N1CCN(C2(C)CCN(C(=O)c3c(C)ncnc3C)CC2)C[C@@H]1C`: the outcome in data set [1], in data set [2] and in data set [5] was Active.
`CC(=O)N[C@@H](CCN1[C@@H]2CC[C@H]1C[C@@H](n1c(C)nc3c1CCN(C(=O)C(C)(C)C)C3)C2)c1cccc(F)c1`: the basolateral-to-apical permeability (Papp B→A) in data set [3] is 24 ×10⁻⁶ cm/s. Moreover, the intrinsic clearance (microsomal CLint) in data set [4] was found to be 35 µL/min/mg. In addition, the Papp A→B in data set [7] is 1 ×10⁻⁶ cm/s. The same compound yielded a logD in data set [8] of 2.8.
Take `COC(=O)N[C@@H](CCN1[C@@H]2CC[C@H]1C[C@@H](n1c(C)nc3c1CN(C(=O)OC)CC3)C2)c1cccc(F)c1`: the inhibition at 0.3 µM against hERG (KCNH2) came to 69%. Besides, the basolateral-to-apical permeability (Papp B→A) in data set [3] was 17 ×10⁻⁶ cm/s. Moreover, in [4], the microsomal CLint is 92 µL/min/mg. Besides, in data set [7], the Papp A→B worked out at 17 ×10⁻⁶ cm/s. Moreover, in data set [8], the logD was 2.6.
Take `CC(=O)N[C@@H](CCN1[C@@H]2CC[C@H]1C[C@@H](n1c(C)nc3c1CCN(C(C)=O)C3)C2)c1cccc(F)c1`: the basolateral-to-apical permeability (Papp B→A) in data set [3] came to 6 ×10⁻⁶ cm/s. The compound further returned an intrinsic clearance (microsomal CLint) in [4] below 8 µL/min/mg. Further, in data set [7], the apical-to-basolateral permeability (Papp A→B) is below 1 ×10⁻⁶ cm/s. In addition, the logD in [8] came out at 1.4.
`CC(=O)N[C@@H](CCN1[C@@H]2CC[C@H]1C[C@@H](n1c(C)nc3c1CN(C(=O)C(C)C)CC3)C2)c1ccccc1` yielded an inhibition at 0.3 µM against hERG (KCNH2) of 0%. Further, the Papp B→A in [3] was found to be 20 ×10⁻⁶ cm/s. This compound also gave a microsomal CLint in [4] of 42 µL/min/mg. Moreover, the Papp A→B in [7] was below 1 ×10⁻⁶ cm/s. This compound gave a pH-dependent lipophilicity (logD) in [8] of 1.6.
For the compound `CCCCN1C(=O)[C@@H]([C@H](O)C2CCCCC2)NC(=O)C12CCN(Cc1ccc(Oc3ccc(C(=O)O)cc3)cc1)CC2`, the result in [1], in data set [2] and in data set [5] was Active.
In turn, `COC(=O)N[C@@H](CCN1[C@@H]2CC[C@H]1C[C@@H](n1c(C)nc3c1CN(C(C)=O)CC3)C2)c1ccccc1` had an inhibition at 0.3 µM against hERG (KCNH2) of 57%. For the same compound, the basolateral-to-apical permeability (Papp B→A) in [3] stood at 27 ×10⁻⁶ cm/s. The same compound yielded an intrinsic metabolic clearance (microsomal CLint) in data set [4] of 42 µL/min/mg. Besides, the apical-to-basolateral permeability (Papp A→B) in [7] stood at 4 ×10⁻⁶ cm/s. In [8], this compound came in with a log distribution coefficient (logD) of 1.4.
Taken in the same sequence, the figures for `CC(=O)N[C@@H](CCN1[C@@H]2CC[C@H]1C[C@@H](n1c(C)nc3c1CN(C(C)=O)CC3)C2)c1ccccc1` were 0%, 5 ×10⁻⁶ cm/s, below 7 µL/min/mg, below 1 ×10⁻⁶ cm/s and 0.6.
